Converted amounts (≈) assume the structure as drawn.
Legend:
Type in all cases: functional, cell-based
[1] = Cytotoxicity against human BC1 cells
Lu1 = experiment: Cytotoxicity against human Lu1 cells
Col2 = experiment: Cytotoxicity against human Col2 cells
KB = experiment: Cytotoxicity against human KB cells
[2] = Cytotoxicity against vinblastine-resistant human KBV1 cells in presence of vinblastine; conditions: KB-V1
[3] = Cytotoxicity against vinblastine-resistant human KBV1 cells; conditions: KB-V1
LNCaP = experiment: Cytotoxicity against human LNCAP cells

CCCCCC/C=C\CCCCCCCCCc1cc(O)ccc1O
IC50 [1]: 1.3 µg/mL (≈ 3.75 µM) | IC50 (Lu1): 0.3 µg/mL (≈ 0.866 µM) | IC50 (Col2): 0.8 µg/mL (≈ 2.31 µM) | IC50 (KB): 0.5 µg/mL (≈ 1.44 µM) | IC50 [2]: 0.5 µg/mL | IC50 [3]: 0.6 µg/mL (≈ 1.73 µM) | IC50 (LNCaP): 0.2 µg/mL (≈ 0.577 µM)

CCCCCC/C=C\CCCCCCCCC[C@]1(O)C=CC(=O)[C@@H](O)C1
IC50 [1]: 4.3 µg/mL (≈ 11.8 µM) | IC50 (Lu1): 4.4 µg/mL (≈ 12.1 µM) | IC50 (Col2): 1.8 µg/mL (≈ 4.94 µM) | IC50 (KB): 1.5 µg/mL (≈ 4.11 µM) | IC50 [2]: 4.1 µg/mL | IC50 [3]: 4.2 µg/mL (≈ 11.5 µM) | IC50 (LNCaP): 0.3 µg/mL (≈ 0.823 µM)
